Data: patent publication US20180201592A1, “2-AMINO-1,3,4-THIADIAZINE AND 2-AMINO-1,3,4-OXADIAZINE BASED ANTIFUNGAL AGENTS” (F2G Limited, priority 2015, published 2018)

What was measured:
Conditions in all cases: banded MIC grade
A. terreus 49 = experiment: Minimum inhibitory concentration, YAG medium; format: cell-based, Aspergillus terreus
Outline: (§1)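 Twofold aqueous dilution series, prepared from a DMSO stock (5 mg/mL), were inoculated with Aspergillus spp. spores; incubation lasted 24 hrs at 35° C before OD 485 nm readings.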

Aspergillus terreus = experiment: Minimum inhibitory concentration, YAG medium; format: cell-based
Outline: as §1

Aspergillus flavus = experiment: Minimum inhibitory concentration, YAG medium; format: cell-based
Outline: as §1

Aspergillus niger = experiment: Minimum inhibitory concentration, YAG medium; format: cell-based
Outline: as §1

A. fumigatus 210 = experiment: Minimum inhibitory concentration, YAG medium; format: cell-based, Aspergillus fumigatus
Outline: (§2)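 MIC, in mg/L, defined as the lowest drug level inhibiting growth by >70% relative to drug-free wells, judged by OD 485 nm after 24 hrs at 35° C. Spores (1-2×10^4 cfu/mL) were grown in YAG medium against doubling dilutions, usually 50-0.05 mg/L, repeated at 0.5-0.0005 mg/L where needed.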

Aspergillus fumigatus = experiment: Minimum inhibitory concentration, YAG medium; format: cell-based
Outline: as §2

C. parapsilosis = experiment: Minimum inhibitory concentration, RPMI medium; format: cell-based
Outline: (§3)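 Incubated at 35° C for 24-48 hrs in RPMI 1640 with twofold water dilutions of compound (from 5 mg/mL stock in DMSO); absorbance at 485 nm indicated growth.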

C. albicans = experiment: Minimum inhibitory concentration, RPMI medium; format: cell-based
Outline: as §3

C. tropicalis = experiment: Minimum inhibitory concentration, RPMI medium; format: cell-based
Outline: as §3

Row | SMILES | MIC grade, A. TERREUS 49, YAG media (A. terreus 49) | MIC grade, A. TERREUS, YAG media (Aspergillus terreus) | MIC grade, A. FLAVUS, YAG media (Aspergillus flavus) | MIC grade, A. NIGER, YAG media (Aspergillus niger) | MIC grade, A. FUMIGATUS 210, YAG media (A. fumigatus 210) | MIC grade, A. FUMIGATUS, YAG media (Aspergillus fumigatus) | MIC grade, C. PARAPSILOSIS, RPMI media (C. parapsilosis) | MIC grade, C. ALBICANS, RPMI media (C. albicans) | MIC grade, C. TROPICALIS, RPMI media (C. tropicalis)
1 | N#Cc1ccc(C2=NN=C(N)SC2)cc1 | 2 (2: 1-5 mg/L) | 2 (2: 1-5 mg/L) | 2 (2: 1-5 mg/L) | 2 (2: 1-5 mg/L) | 2 (2: 1-5 mg/L) | 1 (1: ≥5 mg/L) | 1 (1: ≥20 mg/L) | 1 (1: ≥20 mg/L) | 1 (1: ≥20 mg/L)
2 | NC1=NN=C(CCOC2CCCCC2)CS1 | 2 (2: 1-5 mg/L) | 2 (2: 1-5 mg/L) | 2 (2: 1-5 mg/L) | 2 (2: 1-5 mg/L) | 1 (1: ≥5 mg/L) | 2 (2: 1-5 mg/L) | 2 (2: 5-20 mg/L) | 1 (1: ≥20 mg/L) | 1 (1: ≥20 mg/L)
3 | NC1=NN=C(CCOCc2ccccc2)CS1 | 3 (3: 0.2-1 mg/L) | 3 (3: 0.2-1 mg/L) | 3 (3: 0.2-1 mg/L) | 3 (3: 0.2-1 mg/L) | 2 (2: 1-5 mg/L) | 3 (3: 0.2-1 mg/L) | 3 (3: 1-5 mg/L) | 1 (1: ≥20 mg/L) | 1 (1: ≥20 mg/L)
4 | CCCCOCCC1=NN=C(N)SC1 | 4 (4: <0.2 mg/L) | 4 (4: <0.2 mg/L) | 3 (3: 0.2-1 mg/L) | 4 (4: <0.2 mg/L) | 4 (4: <0.2 mg/L) | 4 (4: <0.2 mg/L) | 4 (4: <1 mg/L) | 1 (1: ≥20 mg/L) | 2 (2: 5-20 mg/L)
5 | CC(C)OCCC1=NN=C(N)SC1 | 2 (2: 1-5 mg/L) | 2 (2: 1-5 mg/L) | 1 (1: ≥5 mg/L) | 1 (1: ≥5 mg/L) | 1 (1: ≥5 mg/L) | 4 (4: <0.2 mg/L) | 3 (3: 1-5 mg/L) | 1 (1: ≥20 mg/L) | 1 (1: ≥20 mg/L)
6 | NC1=NN=C(c2ccccn2)CS1 | 1 (1: ≥5 mg/L) | 1 (1: ≥5 mg/L) | 1 (1: ≥5 mg/L) | 2 (2: 1-5 mg/L) | 1 (1: ≥5 mg/L) | 1 (1: ≥5 mg/L) | 1 (1: ≥20 mg/L) | 1 (1: ≥20 mg/L) | 1 (1: ≥20 mg/L)
7 | NC1=NN=C(c2ccc(C3CCCCC3)cc2)CS1 | 1 (1: ≥5 mg/L) | 1 (1: ≥5 mg/L) | 1 (1: ≥5 mg/L) | 1 (1: ≥5 mg/L) | 1 (1: ≥5 mg/L) | 1 (1: ≥5 mg/L) | 1 (1: ≥20 mg/L) | 1 (1: ≥20 mg/L) | 1 (1: ≥20 mg/L)
8 | CC(C)c1ccc(C2=NN=C(N)SC2)cc1 | 2 (2: 1-5 mg/L) | 2 (2: 1-5 mg/L) | 1 (1: ≥5 mg/L) | 1 (1: ≥5 mg/L) | 1 (1: ≥5 mg/L) | 1 (1: ≥5 mg/L) | 1 (1: ≥20 mg/L) | 1 (1: ≥20 mg/L) | 1 (1: ≥20 mg/L)
9 | COc1ccc(C2=NN=C(N)SC2)cc1 | 3 (3: 0.2-1 mg/L) | 3 (3: 0.2-1 mg/L) | 2 (2: 1-5 mg/L) | 2 (2: 1-5 mg/L) | 2 (2: 1-5 mg/L) | 2 (2: 1-5 mg/L) | 1 (1: ≥20 mg/L) | 1 (1: ≥20 mg/L) | 1 (1: ≥20 mg/L)
